Experimental data published in paper PMC7238120, “Strong and Selective Inhibitory Effects of the Biflavonoid Selamariscina A against CYP2C8 and CYP2C9 Enzyme Activities in Human Liver Microsomes” (Pharmaceutics, 2020).

Key:
Assay type in all cases: in vitro ADME
[1] = molecular target: T1, CYP2C8 (Homo sapiens, UniProt P10632); experiment: Inhibition of CYP2C8-catalyzed amodiaquine N-deethylation in pooled human liver microsomes; design: incubation mixtures containing pooled human liver microsomes (HLMs, XTreme 200, XenoTech); tissue XenoTech XTreme 200; host or cells: pooled human liver microsomes; conditions: for Ki: amodiaquine 0.1, 0.4, 1 µM, average ± standard error, triplicate; for IC50: substrate amodiaquine 1 µM, read-out: IC50, P450 2C8; for IC50 / inhibition at 10 min, 0.5 µM: pooled HLMs 0.25 mg/mL; for inhibition at 10 min, 0.5 µM: inhibitor 0.5 μM
T1 sequence (P10632 1-490): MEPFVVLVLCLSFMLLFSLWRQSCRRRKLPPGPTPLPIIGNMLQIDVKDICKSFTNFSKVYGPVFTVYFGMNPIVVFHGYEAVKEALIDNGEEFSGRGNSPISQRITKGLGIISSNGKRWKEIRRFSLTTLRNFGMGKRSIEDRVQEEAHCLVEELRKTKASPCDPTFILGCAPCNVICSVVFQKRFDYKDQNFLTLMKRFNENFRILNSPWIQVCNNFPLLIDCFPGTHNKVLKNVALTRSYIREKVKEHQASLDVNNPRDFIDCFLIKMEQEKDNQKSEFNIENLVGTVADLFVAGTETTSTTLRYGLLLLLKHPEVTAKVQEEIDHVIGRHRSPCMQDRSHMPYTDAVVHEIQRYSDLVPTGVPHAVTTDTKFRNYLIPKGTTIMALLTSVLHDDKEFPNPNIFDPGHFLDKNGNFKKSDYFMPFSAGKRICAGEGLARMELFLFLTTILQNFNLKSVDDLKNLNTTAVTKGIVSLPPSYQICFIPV
Method: (§1) The inhibitory potential of the five biflavonoids on the metabolism of nine P450 probe substrates was evaluated using previously developed methods with minor modifications. Biflavonoids were dissolved in methanol. The final concentration of methanol in the incubation mixture was 1.0% (v/v). We used these P450 probe substrates: phenacetin for CYP1A2, coumarin for CYP2A6, bupropion for CYP2B6, amodiaquine for CYP2C8, diclofenac for CYP2C9, omeprazole for CYP2C19, dextromethorphan for CYP2D6, chlorzoxazone for CYP2E1 and midazolam for CYP3A (Table 1). The incubation mixtures containing pooled human liver microsomes (HLMs, XTreme 200, XenoTech), P450 probe substrates, and inhibitor (0~20 µM) were pre-incubated at 37 °C for 5 min. The concentration range of the inhibitor varied (0, 0.002, 0.005, 0.02, 0.05, and 0.2 µM for CYP2C8; 0, 0.02, 0.05, 0.2, 0.5, and 2 µM for CYP2C9; 0, 0.5, 2, 5, 10, and 20 µM for other P450 isoforms). After pre-incubation, a reduced nicotinamide adenine dinucleotide phosphate (NADPH) generation system containing 1 unit/ml G6PDH, 1.3 mM β- nicotinamide adenine dinucleotide phosphate (β- NADP^+), 3.3 mM MgCl2, and 3.3 mM G6P was added to initiate a reaction, and further incubated for 10 min at 37 °C. The reaction was stopped by adding 50 μL of ice-cold acetonitrile containing 7 nM trimipramine (internal standard, IS). After centrifugation at 18,000 g (5 min, 4 °C), aliquots of supernatants were analyzed by LC–MS/MS (Shimadzu LCMS 8060 system, Shimadzu, Kyoto, Japan). All microsomal incubations were conducted in triplicate.
The other conditions were the same as in the cytochrome P450 inhibition study.
We used HLMs to determine the mechanisms and constants (Ki values) for selamariscina A inhibition of CYP1A2, CYP2B6, CYP2C8, CYP2C9 and CYP3A. The selamariscina A (0~50 μM) was added into the reaction mixtures, each of which contained concentrations of phenacetin (20, 50, and 100 μM), bupropion (20, 50, and 100 μM), amodiaquine (0.1, 0.4, and 1 μM), rosiglitazone (2, 5, and 10 μM), diclofenac (1, 4, and 10 μM), tolbutamide (50, 100, and 200 μM), and midazolam (0.5, 2, and 5 μM). The substrates were used at concentrations approximately near to their respective Km values. The concentration range of selamariscina A varied (0, 0.002, 0.005, 0.02, 0.05, and 0.2 μM for CYP2C8; 0, […], 0.02, 0.05, 0.2, and 0.5 μM for CYP2C9; 0, 0.2, 0.5, 2, 5, and 20 µM for CYP3A; 0, 0.5, 2, 5, 20, and 50 μM for CYP1A2 and CYP2B6). The other conditions were the same as in the cytochrome P450 inhibition study.
(§2) All metabolites and the IS were separated on a Kinetex XB-C18 column (100 × 2.10 mm, 2.6 μm, 100 Å; Phenomenex, Torrance, CA, USA) and analyzed using a Shimadzu LCMS 8060 triple-quadrupole mass spectrometer coupled with a Nexera X2 ultra high-performance liquid chromatography system (Shimadzu, Kyoto, Japan) equipped with an electrospray ionization interface. The mobile phase consisted of 0.1% formic acid in water (A) and 0.1% formic acid in acetonitrile (B). The elution condition was set as 8% B (0–0.5 min), 8%→60% B (0.5–5 min), 60% B (5–6 min), 60%→8% B (6–6.1 min) and 8% B (6.1–9 min) for the analysis of metabolites of P450 probe substrates and set as 0%→40% B (0–1 min), 40%→50% B (1–5 min), 50%→0% B (5–5.1 min), and 0% B (5.1–8 min) for the analysis of metabolites of UGT probe substrates. The flow rate was 0.2 mL/min. Electrospray ionization was performed in positive-ion mode at 4000 V or in negative-ion mode at −3500 V. The optimum operating conditions were determined as follows: vaporizer temperature, 300 °C; capillary temperature, 350 °C; collision gas (argon) pressure, 1.5 mTorr. Quantitation was conducted in selected reaction monitoring (SRM) modes with the precursor-to-product ion transition for each metabolite (Table 1 and Table 2).
We analyzed the data with Shimadzu LabSolution LC–MS software. The IC50 values were calculated by WinNonlin software (Pharsight, Mountain View, CA, USA).

[2] = molecular target: T2, CYP2D6 (Homo sapiens, UniProt P10635); experiment: Inhibition of CYP2D6 (dextromethorphan) activity in pooled human liver microsomes; conditions: substrate dextromethorphan 5 µM; pooled HLMs; read-out: IC50, P450 2D6
T2 construct: incubation mixtures containing pooled human liver microsomes (HLMs, XTreme 200, XenoTech); tissue XenoTech XTreme 200; host or cells: pooled human liver microsomes
T2 sequence (P10635 whole entry): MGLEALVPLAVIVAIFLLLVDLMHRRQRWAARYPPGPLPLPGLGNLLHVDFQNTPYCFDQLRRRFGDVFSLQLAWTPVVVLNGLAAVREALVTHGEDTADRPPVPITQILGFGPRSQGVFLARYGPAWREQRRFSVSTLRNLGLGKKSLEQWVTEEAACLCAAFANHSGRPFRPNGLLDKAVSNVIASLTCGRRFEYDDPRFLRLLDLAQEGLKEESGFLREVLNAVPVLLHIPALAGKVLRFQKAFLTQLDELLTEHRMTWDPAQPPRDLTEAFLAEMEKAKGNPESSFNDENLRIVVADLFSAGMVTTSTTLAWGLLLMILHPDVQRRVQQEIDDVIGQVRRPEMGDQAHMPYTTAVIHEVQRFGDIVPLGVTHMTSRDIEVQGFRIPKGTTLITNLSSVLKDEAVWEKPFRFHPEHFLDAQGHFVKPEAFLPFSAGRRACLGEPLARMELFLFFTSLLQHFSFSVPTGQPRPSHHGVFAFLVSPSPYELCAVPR
Method: as §1, §2
(§3) We analyzed the data with Shimadzu LabSolution LC–MS software. The IC50 values were calculated by WinNonlin software (Pharsight, Mountain View, CA, USA). The type of inhibition and the apparent kinetic parameters for inhibitory activity (Ki) were determined by following several criteria: visual inspection of Dixon plots, Lineweaver–Burk double reciprocal plots, and secondary plots of Lineweaver–Burk plots versus biflavonoid concentrations, the size of the sum of squares of the residuals, Akaike Information Criteria values, the S.E. and 95% confidence interval of the parameter estimates from the nonlinear regression analysis using the WinNonlin software. The models tested included competitive, competitive partial, noncompetitive, noncompetitive partial, uncompetitive, uncompetitive partial, and mixed-type inhibition.

[3] = molecular target: T3, CYP2C19 (Homo sapiens, UniProt P33261); experiment: Inhibition of CYP2C19 (omeprazole) activity in pooled human liver microsomes; conditions: substrate omeprazole 20 µM; pooled HLMs; read-out: IC50, P450 2C19
T3 construct: incubation mixtures containing pooled human liver microsomes (HLMs, XTreme 200, XenoTech); tissue XenoTech XTreme 200; host or cells: pooled human liver microsomes
T3 sequence (P33261 whole entry): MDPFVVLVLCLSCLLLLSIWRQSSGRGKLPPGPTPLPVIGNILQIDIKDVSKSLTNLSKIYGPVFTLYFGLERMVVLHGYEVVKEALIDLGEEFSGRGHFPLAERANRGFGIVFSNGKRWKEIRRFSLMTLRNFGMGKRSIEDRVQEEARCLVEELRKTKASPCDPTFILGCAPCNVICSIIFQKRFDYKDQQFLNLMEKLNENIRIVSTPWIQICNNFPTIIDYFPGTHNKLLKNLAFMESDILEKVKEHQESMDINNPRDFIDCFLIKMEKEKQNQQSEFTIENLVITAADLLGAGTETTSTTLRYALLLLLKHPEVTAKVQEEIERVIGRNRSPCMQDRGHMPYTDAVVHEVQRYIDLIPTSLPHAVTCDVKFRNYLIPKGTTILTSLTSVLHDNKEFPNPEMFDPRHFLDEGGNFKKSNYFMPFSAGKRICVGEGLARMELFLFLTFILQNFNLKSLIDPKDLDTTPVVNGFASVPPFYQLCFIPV
Method: as §1, §2, §3

[4] = human, pooled human liver microsomes, probe amodiaquine

Compound | Mode of Inhibition, CYP2C8 amodiaquine ([1]; HLMs) | Ki ([1]; HLMs) | IC50 [1] | IC50 [2] | IC50 [3] | Times stronger CYP2C8 inhibitory potential than amentoflavone [1] | inhibition at 10 min, 0.5 µM [1, 4] | Times weaker CYP2C8 inhibition than selamariscina A ([1]; IC50 comparison at 0.25 mg/mL microsomal protein) | inhibition at 10 min, 5 µM ([1]; human, pooled human liver microsomes, probe amodiaquine, inhibitor 5 μM, HLMs)
O=c1cc(-c2ccc(O)c(-c3c(O)cc4oc(-c5ccc(O)cc5)cc(=O)c4c3O)c2)oc2cc(O)cc(O)c12 [robustaflavone] | Noncompetitive | 0.084 ± 0.016 µM | 0.083 µM | 2.2 µM | 6.4 µM | – | – | – | –
O=C1CC(c2cc(-c3c(O)ccc4c(=O)cc(-c5ccc(O)cc5)oc34)c(O)cc2O)Oc2cc(O)cc(O)c21 (centres unmarked) [selamariscina A] | Noncompetitive | 0.018 ± 0.002 µM | 0.019 µM | 10.6 µM | 13.3 µM | more than 4.5 times | 92.8% | – | –
CC(C)(O)c1ccccc1CC[C@@H](SCC1(CC(=O)O)CC1)c1cccc(/C=C/c2ccc3ccc(Cl)cc3n2)c1 [montelukast, reference compound] | – | – | – | > 50 µM | > 50 µM | – | 52.7% | more than 25 times | 86.1%
O=c1cc(-c2ccc(O)c(-c3c(O)cc(O)c4c(=O)cc(-c5ccc(O)cc5)oc34)c2)oc2cc(O)cc(O)c12 [amentoflavone] | Noncompetitive | 0.083 ± 0.009 µM | 0.084 µM | 2.6 µM | 3.4 µM | – | – | – | –
O=c1cc(-c2ccc(O)c(-c3c(-c4ccc(O)cc4)oc4cc(O)cc(O)c4c3=O)c2)oc2cc(O)cc(O)c12 [taiwaniaflavone] | Noncompetitive | 0.142 ± 0.026 µM | 0.12 µM | 3.2 µM | 5 µM | – | – | – | –
O=c1cc(-c2ccc(O)cc2)oc2c(-c3c(O)cc(O)c4c(=O)cc(-c5ccc(O)cc5)oc34)c(O)cc(O)c12 [cupressuflavone] | Noncompetitive | 0.103 ± 0.017 µM | 0.083 µM | 2.7 µM | 3 µM | – | – | – | –
